Data from US20260174780A1, “BISMUTH-THIOL COMPOSITIONS AND METHODS FOR TREATING INFLAMMATORY DISEASES” (Microbion Corporation, priority 2022, published 2026).
Entries after “also recorded” stand apart in the source; their conditions may differ. Like-named read-outs stand apart in the source and are kept apart here.

Columns and labels:
[1] = tested on: M. abscessus strain 19977; assay: Chronic M. abscessus lung infection in SCID mice, inhaled treatment, lung CFU; format: in vivo, SCID/Beige mice
Protocol: In vivo studies were conducted in mice to separately model chronic M. abscessus infection. The animals were treated for 28 days and grouped according to dosage: vehicle, low dose BisEDT, high dose BisEDT, and amikacin. At the end of treatment, blood, lungs were collected for analysis. […] Histopathology was conducted on lung samples from the in vivo studies.
A total of sixty female SCID/Beige mice between 6-8 weeks of age were used. Mice were placed up to 4 animals per cage and allowed 1 week of acclimation prior to infection.
Inoculums of M. abscessus strain 19977 (MAB) used in this study were made from highly virulent frozen stocks with low passage numbers. Bacteria were allowed to grow to log phase after 4 days on 7H10 media agar plates at 37° C. Once confluent, inoculums were made by suspending bacteria at 10^9 in Hank's balanced salt solution (HBSS) as determined by optical density (O.D.) and further quantified by serial dilution to determine the CFU/mL of suspension. At this higher concentration of bacteria, only 20 μL of inoculum was necessary to deposit […] bacteria per mouse.
On the day of infection mice were anesthetized with isoflurane by the drop jar method. Mice were scruffed in a standard one-handed grip and the nose of the mouse is held of a tube containing gauze containing a small amount of isoflurane. Mice were monitored for breathing and once rapid breaths have slowed down initially the mouse is removed from direct anesthesia and 20 μL of bacterial suspension was deposited on the left nostril. The mice then slowly breath in the droplet. Each mouse was then held in hand until complete consciousness was obtained and then the mouse was replaced into its home cage. After infection was initiated, 3 weeks were allowed to pass in order to allow the bacteria to establish a chronic lung pathology for eventual treatment.
After establishing each infection, 12 mice were euthanized the day before treatment began to determine the baseline bacterial load. Mice were euthanized using CO2 in accordance with the recommendations of the Guide for the Care and Use of Laboratory Animals (NRC 2011). Lungs were collected and homogenized then serial diluted for CFU enumeration.
A nose-only inhalation exposure chamber from CH technologies was used for this experiment. Mice were split into four treatment groups, Vehicle (buffer containing no BisEDT), amikacin (100 μg/kg/day), BisEDT “low” (200 μg/kg/day), and BisEDT “high” (1000 μg/kg/day). Each treatment group consisted of 12 mice. […]
After 28 days of treatment with BisEDT, animals were euthanized by CO2 and secondary cardiac puncture to collect whole blood for quantitation of BisEDT concentration. […] CFUs were determined after serial dilution. […]

[2] = tested on: lung tissue of M. abscessus infected mice; assay: Lung histopathology in chronic M. abscessus infection study; format: in vivo, SCID/Beige mice
Protocol: After 28 days of treatment with BisEDT, animals were euthanized by CO2 and secondary cardiac puncture to collect whole blood for quantitation of BisEDT concentration. Lungs and spleens from the CFU mice were homogenized with 1:1 H2O:Dey-Englev neutralizing broth to deactivate BisEDT. CFUs were determined after serial dilution. Mice for histology and the lung pair split, one half in formalin the other half weighed and snap frozen in liquid N2 to determine tissue concentration of BisEDT.
Samples for histology were processed by the Veterinary Diagnostic Laboratory. Slides were stained with hematoxylin-eosin (HE stain) for general pathology as well as a slide for acid-fast stain to highlight the mycobacterial infection in lung tissue.

AIM2 inflammasome = assay: qPCR of AIM2 in HUVEC cells; format: cell-based, human; details: HUVEC cells, 0.5, 1, 2 or 4 μg/mL, 24 hours, compared to untreated cells
Protocol: Protocol: HUVEC cells were grown in tissue culture flasks and a 24-well plate was seeded with 2×10^5 cells/well and incubated at 37° C. and 5% CO2 for 48 hours. Select wells were treated with either 4 μg/mL, 2 μg/mL, 1 μg/mL, or 0.5 μg/mL BisEDT or left untreated as a control and incubated at 37° C. and 5% CO2 for 24 hours. Cell culture supernatant was collected from each well and stored at −20° C. until further ELISA analysis. On the day of the ELISA assays to determine the expression of each cytokine, cell culture supernatant was thawed, and the assays performed following the manufacturer's instructions. Cells were collected for RNA isolation using Qiagen RNeasy kit using manufacturer's instructions. Briefly, genomic DNA was degraded with DNase (Roche) and samples were incubated at 37° C. for 1 hour followed by 3 μL DNase inactivation reagent (Invitrogen) incubated at 37° C. for 2 minutes. Samples were centrifuged at maximum speed for 5 minutes to remove the inactivation reagent. RNA concentration and quality was evaluated using a Nanodrop. RNA samples were utilized to generate cDNA using cDNA synthesis kit (Bio-Rad). qPCR for AIM2 and actin (housekeeping gene) was conducted using SYBR green kit (Bio-Rad) along with standard.

neutrophils = assay: In vitro model of neutrophil recruitment to the lung (transmigration, supernatant and conditioned media cytokines); format: cell-based, human; details: for viability of the cells: CF-conditioned media and normal media (LTB4); for neutrophil transmigration / recruitment: CF-conditioned media and LTB4
Text: FIG. 6 provides a description of the assay for in vitro modeling of neutrophil recruitment to the lung.
FIG. 7 provides a summary of the process for comparing cellular and soluble inflammatory markers in vitro.
The neutrophils used are primary cells harvested from normal healthy volunteers immediately prior to the study. Cellular and soluble inflammatory markers were compared in vitro as described in FIG. 7.

In the case of `C1C[S][Bi]([S]CC[S][Bi]2[S]CC[S]2)[S]1` [BisEDT, 1,2-(Bis(1,3-dithia-2-bismolane)thio)ethane], the “CFU count in lung homogenates” value ([1]; 200 μg/kg (low)) was “bacteriostatic effect”, the “CFU count in lung homogenates” value ([1]; 1000 μg/kg (high) delivered to the lungs) was “bactericidal” and the “lung CFU, high-dose group vs vehicle control” value ([1]; 1000 μg/kg/day, p-value=0.0163) was “statistically significant difference”. The “lung CFU” value ([1]; inhaled 200 and 1000 μg/kg/day, 28 days, Kruskal-Wallis test) was “dose-dependent response”, the “inflammatory process caused by the test article in lung” value ([2]; M. abscessus infected, BisEDT treated mice) was “no indication of an inflammatory process caused by the BisEDT” and the lung histomorphologic observation ([2]; high-dose (1000 μg/kg/day), FIG. 5D) was “the inflammatory response was receding and clear airways were observed”. For the same molecule, the lung histomorphologic observation ([2]; low-dose (200 μg/kg/day), FIG. 5C) was “decrease of inflammatory infiltrate compared to untreated control and a decrease in hemorrhage”, the “AIM2 inflammasome expression (AIM2/Actin copy number)” value (AIM2 inflammasome) was “inhibit AIM2 inflammasome expression” and the “activity of caspase-1 (FLICA)” value (neutrophils) was “slightly reduced”. The “IL-18 level in transmigration supernatant” value (neutrophils; 6 hours, compared to vehicle) was “appreciably lower level”, the “viability of the cells” value (neutrophils) was “very high level of viability” and the “viability of the cells” value (neutrophils; listed as pravibismane) was “no effect on cell viability”. For the same molecule, the “IL-18 in conditioned media” value (neutrophils; compared to vehicle) was “down-regulated”, the “neutrophil transmigration / recruitment” value (neutrophils; compared to vehicle) was “lower level of neutrophil transmigration; also recorded: inhibits neutrophil recruitment” and the “neutrophil transmigration / recruitment” value (neutrophils; compared to vehicle, listed as pravibismane) was “reduced transmigration efficiency”. The “IL-6 in conditioned media” value (neutrophils; conditioned media) was “Very minor changes”, the “expression of VEGF” value (neutrophils; conditioned media) was “small increase” and the “interferon-gamma in conditioned media” value (neutrophils; conditioned media) was “Very minor changes”. For the same molecule, the “activity of caspase-1 (FLICA)” value (neutrophils; listed as pravibismane) was “slight reduction”, the IL-10 secretion (neutrophils; summary) was “substantially increased” and the “CCL4 (macrophage inflammatory protein)” value (neutrophils; transmigration supernatant, 6-hour time point) was “reduced”.
